Laboratory results from patent US20180200257A1, “METHODS FOR THE TREATMENT OF INFLAMMATORY DISORDERS” (Galapagos NV, priority 2015, published 2018).

System: Subjects With Active Crohn's Disease With Evidence of Mucosal Ulceration
Experiment: Study 3 - Crohn's Disease Activity Index (CDAI) scores
Assay type: in vivo, human
Source text: Double-Blind, Randomized, Placebo-Controlled, Multi-Centre Study to Investigate the Efficacy and Safety of Compound 1 in Subjects With Active Crohn's Disease With Evidence of Mucosal Ulceration. This is a double-blind, randomized, placebo-controlled, multi-centre Phase 2 study to investigate the efficacy and safety of Compound 1 administered once daily for the treatment of active CD with evidence of mucosal ulceration. The pharmacokinetics (including a PK substudy) and pharmacodynamics of Compound 1 and metabolite in CD will also be characterised. A total of 180 eligible subjects will be randomized to receive Compound 1 or placebo in addition to their stable background treatment (eg, corticosteroids, aminosalicylates, or CD-related antibiotics). The study will consist of 2 parts, with total treatment duration of 20 weeks. Randomization in Part 1 will be stratified according the subject's previous anti-TNF exposure/response, CRP level at Screening, and oral corticosteroid use at visit Day −1. After the first 10 weeks of treatment in Part 1, patients will be re-randomized for Part 2 as shown in the diagram below and will be stratified according to the subject's clinical response, previous anti-TNF exposure/response, and oral corticosteroid use at visit Day -1. [table] The Crohn's disease activity index (CDAI) is a numerical calculation derived from the sum of products from a list of 8 items (see Table CXXVI below), and multiplied by weighting factors for each item to define the severity of “disease activity” in patients with Crohn's disease (CD)[1]. Essentially, the CDAI represents a numerical estimation of a physician's interpretation of patient symptoms. Index values of 150 and below are associated with quiescent or non-active disease (i.e. “remission”). Values over 150 are indicative of active disease, and over 450, extremely severe disease.% In the present study, clinical remission is defined as a CDAI score of <150 points, and a clinical response is defined as a decrease in CDAI score of at least 100 points.

[1] = 200 mg, LOCF, baseline corticosteroid use: with steroids
[2] = 200 mg, LOCF, baseline corticosteroid use: without steroids
[3] = 200 mg, week 10, Anti-TNF Naïve
[4] = 200 mg, week 10, Anti-TNF experienced non-responders
[5] = 200 mg, week 10, LOCF, screening CRP ≤ 10 ml/L
[6] = 200 mg, week 10, LOCF, screening CRP ≥ 10 mg/L
[7] = initial 200 mg non-responders, continued 200 mg, week 10
[8] = initial 200 mg non-responders, continued 200 mg, week 20
[9] = initial 200 mg non-responders, to placebo, week 10
[10] = initial 200 mg non-responders, to placebo, week 20
[11] = initial 200 mg responders, continued 200 mg, week 10
[12] = initial 200 mg responders, continued 200 mg, week 20
[13] = initial 200 mg responders, to 100 mg, week 10
[14] = initial 200 mg responders, to 100 mg, week 20
[15] = initial 200 mg responders, to placebo, week 10
[16] = initial 200 mg responders, to placebo, week 20
[17] = initial placebo non-responders switching to 100 mg at week 10, week 20

## O=C(Nc1nc2cccc(-c3ccc(CN4CCS(=O)(=O)CC4)cc3)n2n1)C1CC1 [Compound 1, cyclopropanecarboxylic acid {5-[4-(1,1-dioxo-thiomorpholin-4-ylmethyl)-phenyl]-[1,2,4]triazolo[1,5-a]pyridin-2-yl}-amide]
[1]
  70 point clinical response (CDAI improvement ≥ 70 points): 70%
  100 point clinical response (CDAI improvement ≥ 100 points): 60%
  Clinical Remission (CDAI < 150): 52%
[2]
  70 point clinical response (CDAI improvement ≥ 70 points): 72%
  100 point clinical response (CDAI improvement ≥ 100 points): 71%
  Clinical Remission (CDAI < 150): 48%
[3]
  70 point clinical response (CDAI improvement ≥ 70 points): 81%
  100 point clinical response (CDAI improvement ≥ 100 points), LOCF: 74%
  Clinical Remission (CDAI < 150), LOCF: 65%
[4]
  70 point clinical response (CDAI improvement ≥ 70 points): 63%
  100 point clinical response (CDAI improvement ≥ 100 points), LOCF: 59%
  Clinical Remission (CDAI < 150), LOCF: 38%
[5]
  70 point clinical response (CDAI improvement ≥ 70 points): 73%
  100 point clinical response (CDAI improvement ≥ 100 points): 66%
  Clinical Remission (CDAI < 150): 46%
[6]
  70 point clinical response (CDAI improvement ≥ 70 points): 69%
  100 point clinical response (CDAI improvement ≥ 100 points): 65%
  Clinical Remission (CDAI < 150): 56%
200 mg, week 10, overall
  100 point clinical response (CDAI improvement ≥ 100 points), LOCF: 66%
  100 point clinical response (CDAI improvement ≥ 100 points), NRI: 60%
  Clinical Remission (CDAI < 150), LOCF: 50%
  Clinical Remission (CDAI <150), NRI: 48%
[7]
  Clinical Remission (CDAI < 150), LOCF: 16%
  Clinical Remission (CDAI <150), NRI: 16%
  Clinical Remission (CDAI <150), OC: 16%
  Clinical Response (CDAI ≥70), LOCF: 44%
  Clinical Response (CDAI ≥70), NRI: 44%
  Clinical Response (CDAI ≥70), OC: 44%
  Clinical Response (CDAI ≥100), LOCF: 32%
  Clinical Response (CDAI ≥100), NRI: 32%
  Clinical Response (CDAI ≥ 100), OC: 32%
[8]
  Clinical Remission (CDAI < 150), LOCF: 28%
  Clinical Remission (CDAI <150), NRI: 24%
  Clinical Remission (CDAI <150), OC: 30%
  Clinical Response (CDAI ≥70), LOCF: 44%
  Clinical Response (CDAI ≥70), NRI: 40%
  Clinical Response (CDAI ≥70), OC: 50%
  Clinical Response (CDAI ≥100), LOCF: 36%
  Clinical Response (CDAI ≥100), NRI: 32%
  Clinical Response (CDAI ≥ 100), OC: 40%
[9]
  Clinical Remission (CDAI < 150), LOCF: 0%
  Clinical Remission (CDAI <150), NRI: 0%
  Clinical Remission (CDAI <150), OC: 0%
  Clinical Response (CDAI ≥70), LOCF: 22%
  Clinical Response (CDAI ≥70), NRI: 11%
  Clinical Response (CDAI ≥70), OC: 13%
  Clinical Response (CDAI ≥100), LOCF: 22%
  Clinical Response (CDAI ≥100), NRI: 11%
  Clinical Response (CDAI ≥ 100), OC: 13%
[10]
  Clinical Remission (CDAI < 150), LOCF: 33%
  Clinical Remission (CDAI <150), NRI: 33%
  Clinical Remission (CDAI <150), OC: 38%
  Clinical Response (CDAI ≥70), LOCF: 44%
  Clinical Response (CDAI ≥70), NRI: 44%
  Clinical Response (CDAI ≥70), OC: 50%
  Clinical Response (CDAI ≥100), LOCF: 33%
  Clinical Response (CDAI ≥100), NRI: 33%
  Clinical Response (CDAI ≥ 100), OC: 38%
[11]
  Clinical Remission (CDAI < 150), LOCF: 67%
  Clinical Remission (CDAI <150), NRI: 63%
  Clinical Remission (CDAI <150), OC: 70%
  Clinical Response (CDAI decrease ≥100 points), OC: 93%
  Clinical Response (CDAI ≥70), LOCF: 100%
  Clinical Response (CDAI ≥70), NRI: 90%
  Clinical Response (CDAI ≥70), OC: 100%
  Clinical Response (CDAI ≥100), LOCF: 93%
  Clinical Response (CDAI ≥100), NRI: 83%
[12]
  Clinical Remission (CDAI < 150), LOCF: 57%
  Clinical Remission (CDAI <150), NRI: 50%
  Clinical Remission (CDAI <150), OC: 58%
  Clinical Response (CDAI decrease ≥100 points), OC: 77%
  Clinical Response (CDAI ≥70), LOCF: 80%
  Clinical Response (CDAI ≥70), NRI: 70%
  Clinical Response (CDAI ≥70), OC: 81%
  Clinical Response (CDAI ≥100), LOCF: 77%
  Clinical Response (CDAI ≥100), NRI: 67%
[13]
  Clinical Remission (CDAI < 150), LOCF: 87%
  Clinical Remission (CDAI <150), NRI: 87%
  Clinical Remission (CDAI <150), OC: 87%
  Clinical Response (CDAI decrease ≥100 points), OC: 97%
  Clinical Response (CDAI ≥70), LOCF: 100%
  Clinical Response (CDAI ≥70), NRI: 100%
  Clinical Response (CDAI ≥70), OC: 100%
  Clinical Response (CDAI ≥100), LOCF: 97%
  Clinical Response (CDAI ≥100), NRI: 97%
[14]
  Clinical Remission (CDAI < 150), LOCF: 63%
  Clinical Remission (CDAI <150), NRI: 60%
  Clinical Remission (CDAI <150), OC: 75%
  Clinical Response (CDAI decrease ≥100 points), OC: 92%
  Clinical Response (CDAI ≥70), LOCF: 83%
  Clinical Response (CDAI ≥70), NRI: 77%
  Clinical Response (CDAI ≥70), OC: 96%
  Clinical Response (CDAI ≥100), LOCF: 80%
  Clinical Response (CDAI ≥100), NRI: 73%
[15]
  Clinical Remission (CDAI < 150), LOCF: 79%
  Clinical Remission (CDAI <150), NRI: 71%
  Clinical Remission (CDAI <150), OC: 77%
  Clinical Response (CDAI decrease ≥100 points), OC: 92%
  Clinical Response (CDAI ≥70), LOCF: 100%
  Clinical Response (CDAI ≥70), NRI: 93%
  Clinical Response (CDAI ≥70), OC: 100%
  Clinical Response (CDAI ≥100), LOCF: 93%
  Clinical Response (CDAI ≥100), NRI: 86%
[16]
  Clinical Remission (CDAI < 150), LOCF: 79%
  Clinical Remission (CDAI <150), NRI: 71%
  Clinical Remission (CDAI <150), OC: 77%
  Clinical Response (CDAI decrease ≥100 points), OC: 85%
  Clinical Response (CDAI ≥70), LOCF: 93%
  Clinical Response (CDAI ≥70), NRI: 86%
  Clinical Response (CDAI ≥70), OC: 92%
  Clinical Response (CDAI ≥100), LOCF: 86%
  Clinical Response (CDAI ≥100), NRI: 79%
[17]
  Clinical Remission (CDAI < 150), LOCF: 32%
  Clinical Remission (CDAI <150), NRI: 32%
  Clinical Remission (CDAI <150), OC: 33%
  Clinical Response (CDAI ≥70), LOCF: 68%
  Clinical Response (CDAI ≥70), NRI: 68%
  Clinical Response (CDAI ≥70), OC: 71%
  Clinical Response (CDAI ≥100), LOCF: 59%
  Clinical Response (CDAI ≥100), NRI: 59%
  Clinical Response (CDAI ≥ 100), OC: 62%
